Test results taken from paper PMC3938723, “Learning from Host-Defense Peptides: Cationic, Amphipathic Peptoids with Potent Anticancer Activity” (PLoS ONE, 2014).
Non-standard residues stand in square brackets, D forms with d. Residues, ends and D or L forms follow the SMILES beside them. Nspe = C[C@H](NCC(=O)O)c1ccccc1; Nlys = NCCCCNCC(=O)O

Key:
MCF-7 cells = assay: Apoptotic DNA ladder assay; type: cell-based, human; details: 24 h treatment
LNCaP (prostate cancer) = assay: MTS cell viability assay, LNCaP; type: cell-based; details: 72 h
Description: (§1) This assay is a colorimetric method for determining the number of viable cells in proliferation. Aliquots of 100 µl media containing 1×10^4 cells were distributed into each well of a 96-well plate (BD Falcon). The following day, when cell density reaches about ∼40% confluency, the cell media were removed and replaced with serial dilutions of peptoid stocks in culturing media. For peptoid dilutions, peptoid stocks were initially diluted in media at 100 µM and then diluted by half in series using a multichannel pipette, and maintained in 100 µl media for each concentration with triple repeats. After peptoid solutions were transferred onto cells in 96-well plates, cells were incubated at 37°C for certain time periods. Then 20 µl of the CellTiter 96 Aqueous Non-Radioactive cell proliferation assay (Promega) reagent which contains a tetrazolium compound, [3-(4,5-dimethylthiazol-2-yl)-5-(3-carboxymethoxyphenyl)-2-(4-sulfophenyl)-2H-tetrazolium, inner salt; MTS(a)], was added to each well and cells were further incubated for 2 h to metabolize. The absorbance of formazan products were measured at 490 nm in a microplate reader (Molecular Devices). Percentage of cell viability = (A -A testblank)/(A control -A blank)×100, where A is the absorbance of the test well and A control the average absorbance of wells with cells not treated with peptoids. A testblank (media, MTS, and diluted peptoids) and A blank (media and MTS) were background absorbances measured in the absence of cells.
(§2) The activity and selectivity of these peptoids against cancer cells were evaluated in vitro. Their cytotoxicity was tested in three cancer cell lines, MCF-7 (human breast cancer), LNCaP (human prostate cancer), and OVCAR-3 (human ovarian cancer). To estimate the selectivity of these peptoids in vitro, hemolytic activities of some peptoids were cited from previously published work (Table 2 **column), and the MRC-5 cell line (human fibroblasts derived from fetal lung tissues) and primary dermal fibroblasts were also tested as normal cell controls. Briefly, cells were treated with peptoids diluted in culturing media for certain time periods, and then cell viability was measured via MTS assays.

[1] = system: Primary dermal fibroblast; assay: MTS cell viability assay, primary dermal fibroblasts; type: cell-based; details: 72 h
Description: (§3) MCF-7, MCF-7/TxT50 and OVCAR-3 (available in ATCC) were kindly provided by Professor Branimir Sikic's lab at Stanford University, and were cultured in McCoy's 5A media (GIBCO) with 10% FBS and antibiotics. Primary dermal fibroblasts were gifts from Lifeline Cell Technology and were cultured <6 passages according to the protocol Lifeline provides. All the cells were cultured in cell incubators (Thermo Scientific) at 37°C with 5% CO2.
as §1, §2

MCF-7 (breast cancer) = assay: MTS cell viability assay, MCF-7; type: cell-based; details: 72 h
Description: as §3, §1, §2

C[C@@H](c1ccccc1)N(CC(N)=O)C(=O)CN(C(=O)CN(CCCCN)C(=O)CN(C(=O)CN(C(=O)CN(CCCCN)C(=O)CN(C(=O)CN(C(=O)CN(CCCCN)C(=O)CN(C(=O)CN(C(=O)CNCCCCN)[C@@H](C)c1ccccc1)[C@@H](C)c1ccccc1)[C@@H](C)c1ccccc1)[C@@H](C)c1ccccc1)[C@@H](C)c1ccccc1)[C@@H](C)c1ccccc1)[C@@H](C)c1ccccc1 [Peptoid 1, H-(NLys-Nspe-Nspe)4-NH2] (H-[Nlys][Nspe][Nspe][Nlys][Nspe][Nspe][Nlys][Nspe][Nspe][Nlys][Nspe][Nspe]-NH2)
typical apoptotic DNA ladders (MCF-7 cells): not observed
LC50 LNCaP (prostate cancer) (LNCaP (prostate cancer)): 5 µM
LC50 Primary dermal fibroblast [1]: 8 µM
LC50 MCF-7 (breast cancer) (MCF-7 (breast cancer)): 5 µM
